Consider one compound from patent US20250354192A1, “METHODS FOR QUANTIFYING LIVE BACTERIA” (priority 2022, published 2025).

Test [1] concerns Salmonella Typhimurium and Klebsiella pneumoniae. Briefly: Two-step CLICK labeling with or without EDA, PIPER non-capture assay. Format: cell-based. The note with it: 1 mM EDA, last 30 min of incubation; 25 μM CF488 picolyl azide. The procedure:
FIG. 7 depicts both components of the two-step CLICK reaction are required for cell labeling. Salmonella Typhimurium (top panel) and Klebsiella pneumoniae (bottom panel) were grown overnight at 37° C. The next day, cells were diluted into fresh media and grown until they reached log-phase. The last 30 min of incubation were carried out in the presence or absence of 1 mM of EDA (D-propargylglycine, AK Scientific, Union City, CA). Cells were harvested by centrifugation (10 min 10,000 g), and supernatant was discarded. Bacteria were then washed, fixed by incubation with 4% paraformaldehyde, pelleted by centrifugation (10 min 10,000 g), and supernatant was discarded. […] An automated bacterial image recognition algorithm determined labeled cell counts (graphs).

The test system of another test is Pseudomonas. Nature of the test: Two-step labeling with EDA versus NADA-Green, PIPER counts relative to SYBR labeling. Format: cell-based. As to conditions: 1 mM EDA 30 minutes plus click reaction solution, compared with 1 mM NADA-Green 60-90 minutes. From the text: Universal labeling of all bacteria presents some challenges. D-amino acid analogs must first penetrate the outer membrane of gram-negative bacteria to be incorporated into peptidoglycan. The smaller size of the “clickable” D-amino acids compared to the FDAAs helps achieve higher labeling efficiency for some gram-negative bacteria. Accordingly, and for example, FIGS. 11A-B depict two-step labeling using the “clickable” D-amino acid, EDA, which improves detection of Pseudomonas. Log phase Pseudomonas growing at 37° C. in BHI (with [Supplemented BHI, red bars] or without [blue bars] supplementation with 50 mM glucose and 10 mM sodium pyruvate) was incubated for 60-90 minutes with 1 mM NADA-Green (Bio-Techne, Minneapolis, MN); or for 30 minutes in the presence or absence of 1 mM clickable D-amino acid, EDA (D-propargylglycine, AK Scientific, Union City, CA). For the unlabeled cells or cells labeled with NADA-Green, the cells were pelleted after incubation and resuspended in 1×PBS. For the cells grown in the presence or absence of EDA, the cells were pelleted after incubation by centrifugation (10 min 10,000 g), and supernatant was discarded. Bacteria were washed with 1 mL of 1× PBS, pelleted by centrifugation again (10 min 10,000 g), and supernatant was discarded. […]

For `C#CC[C@@H](N)C(=O)O` [EDA, D-propargylglycine], in test [1], the “signal of click labeling in the presence or absence of EDA” value was “No signal is observed when the click reagents are added in the absence of EDA”. In the test with Pseudomonas, the “detection efficiency, cell counts relative to counts obtained by SYBR labeling” value was “Highest detection efficiency”.
